According to patent publication US20100184811A1, “ISONIAZID MEDIATED HEALING OF WOUNDS AND ULCERS” (priority 2006, published 2010):
Entries after “also recorded” stand apart in the source; their conditions may differ.

Experiments:
[1] = test system: non-ischemic cutaneous lesions / non-TB chronic wounds; conditions: cited from earlier work
ischemic wounds = experiment: Ischemic cutaneous wound healing in a validated rat model (dorsal ischemic skin flap); format: in vivo, Male Sprague-Dawley rats; conditions: 10 mg/kg i.p. b.i.d., 14 days; 8 mm full-thickness wound in ischemic flap; p=0.014
Protocol: The compounds were masked to the investigators. The first dose was given directly after wounding.
Results are expressed as mean±SD or mean±SEM. Wound healing differences among the two groups were calculated as the area under the wound healing curves (FIG. 2A+B) with correction according to Bonferroni (p=0.035). Licox® results were analyzed by the Wilcoxon test.

[2] = Tolerability and body weight in the rat wound model
Protocol: Rats were anesthetized by intraperitoneal (i.p.) injection of 100 mg/kg ketamine (Parke-Davis, Berlin, Germany) and 15 mg/kg xylazin (Bayer, Leverkusen, Germany). A standardized pedunculated dorsal ischemic skin flap (3 cm×7 cm) was lifted, replaced, and fixed with metal clips. Two full-thickness wounds were made using punch biopsies (8 mm diameter), one in the ischemic flap region and one non-ischemic outside the flap in the neck.
To the control group, comprising 10 rats, 10 ml/kg of sterile isotonic saline was administered. The compounds were masked to the investigators. The first dose was given directly after wounding. Wounds were traced (outer margins) on OpSite* Flexigrid* (Smith & Nephew) 30 minutes after wounding day 0 and after dressing (Hydrosorb, Hartmann) removal and wound cleansing on subsequent days (Table I). On post-wounding day 2, intracutaneous oxygen tensions were measured 1 hour after administration of compounds with Licox® (Integra LifeSciences Corporation) Clark type probe under full anesthesia. The Licox® probe was positioned at the wound edges using a Venflon catheter (FIG. 1).

NNC(=O)c1ccncc1 [Isoniazid, pyridine-4-carbohydrazide]
Effect on healing of a variety of non-TB chronic wounds ([1]; case report, Martyn and Campell (1963)): stimulating effects
Effect on ischemic tissue ([1]; conclusion of Martyn and Campell (1963)): little effect on ischemic tissue
Healing of coincidental non-ischemic cutaneous lesions ([1]; tuberculosis and non-tuberculosis patients treated with isoniazid (Potter and Taylor, 1969)): healed
Healing of ischemic wounds compared with the control (area under the wound healing curves) (ischemic wounds): promoted healing of the ischemic wounds; also recorded: stimulated ischemic wound healing
Body weight difference among groups ([2]; before operation or after 14 days of treatment): did not differ significantly
Body weights before operation (Mean ± SD) ([2]; before operation, n=10): 360 ± 8 gram
Rats that died ([2]; group of 10 rats, death 5 days after operation): one
Body weights on post-wounding day 14 (Mean ± SD) ([2]; post operative day 14, 10 mg/kg i.p. b.i.d., n=9): 341 ± 12 gram
